The source made the active and inactive calls. The calls are words filed in the database; no cut-off is given here. A value given as a limit tells only on which side of the number the result lay.

Tested on in the first data set: not listed separately
Description: Toxicity in rat. To be noted: in vivo.
A word on the LD50: it is the dose expected to kill half of the subjects tested. Regarding `COc1ccc2c(c1)C1(C(=O)N2)C2CCC(C2)C1CNC(C)=O` (centres undefined), the LD50 was > 2400 mg/kg.

For the compound `CC(=O)NCCC1C(=O)Nc2ccc(NC(C)=O)cc21` (centres undefined), the LD50 was > 2400 mg/kg.

For the compound `COc1ccc2[nH]c(Cl)c(CCNC(C)=O)c2c1`, the median lethal dose (LD50) was > 2400 mg/kg.

In the case of `COc1ccc2c(c1)C(CC#N)C(=O)N2` (centres undefined), the LD50 was > 2400 mg/kg.

For `CCOC(=O)C(C(=O)O)C1C(=O)Nc2ccc(OC)cc21` (centres undefined), the LD50 was > 2400 mg/kg.

Consider `CC(=O)NCCC1C(=O)Nc2ccc(Br)cc21` (centres undefined), for which the median lethal dose (LD50) is > 2400 mg/kg.

In the case of `CC(=O)Nc1ccc2c(c1)C(O)(CC#N)C(=O)N2` (centres undefined), the LD50 was > 2400 mg/kg.

For `CCC(=O)Nc1cc(NC(=O)CC)c2c(c1)C(O)(CC#N)C(=O)N2` (centres undefined), the LD50 was > 2400 mg/kg.

As to `CCC(=O)Nc1cc(NC(=O)CC)c2c(c1)C(CC#N)(OC(=O)CC)C(=O)N2` (centres undefined), the LD50 is > 2400 mg/kg.

Regarding `CC(=O)Nc1cc(NC(C)=O)c2c(c1)C(CC#N)(OC(C)=O)C(=O)N2` (centres undefined), the LD50 was > 2400 mg/kg.

Another data set is filed under the species Oryctolagus cuniculus. Description: Reduction in intraocular pressure in Chinchilla rabbit assessed as maximum effective time required for reduction of intraaocular pressure at 0.1% after application of one drop (0.06 ml) of solution containing active compound/vehicle every hour (during 6 hours and after 24 hours) and measured after 24 hrs post dose by automatic tonometry. The class given is functional.
Conditions: not given
With `COc1ccc2c(c1)C1(C(=O)N2)C2CCC(C2)C1CNC(C)=O` (centres undefined), the result was inactive.

On to `CC(=O)NCCC1C(=O)Nc2ccc(NC(C)=O)cc21` (centres undefined), for which the outcome was inactive.

On to `CC(C)(C)NC[C@H](O)COc1nsnc1N1CCOCC1` [TIMOLOL], for which the result was inactive.

Regarding `COc1ccc2[nH]c(Cl)c(CCNC(C)=O)c2c1`, the result was inactive.

For the compound `COc1ccc2c(c1)C(CC#N)C(=O)N2` (centres undefined), the outcome was inactive.

With `CCOC(=O)C(C(=O)O)C1C(=O)Nc2ccc(OC)cc21` (centres undefined), the result was inactive.

As for `CC(=O)NCCC1C(=O)Nc2ccc(Br)cc21` (centres undefined), the outcome was inactive.

`CC(=O)Nc1ccc2c(c1)C(O)(CC#N)C(=O)N2` (centres undefined): the result was inactive.

Regarding `COc1ccc2[nH]cc(CCNC(C)=O)c2c1` [MELATONIN], the result was inactive.

With `CCC(=O)Nc1cc(NC(=O)CC)c2c(c1)C(O)(CC#N)C(=O)N2` (centres undefined), the outcome was inactive.

Regarding `CCC(=O)Nc1cc(NC(=O)CC)c2c(c1)C(CC#N)(OC(=O)CC)C(=O)N2` (centres undefined), the result was inactive.

Regarding `CC(=O)Nc1cc(NC(C)=O)c2c(c1)C(CC#N)(OC(C)=O)C(=O)N2` (centres undefined), the result was inactive.

A further data set has as its target T1, Ribosyldihydronicotinamide dehydrogenase [quinone] (Homo sapiens) (UniProt P16083).
T1 sequence (whole entry): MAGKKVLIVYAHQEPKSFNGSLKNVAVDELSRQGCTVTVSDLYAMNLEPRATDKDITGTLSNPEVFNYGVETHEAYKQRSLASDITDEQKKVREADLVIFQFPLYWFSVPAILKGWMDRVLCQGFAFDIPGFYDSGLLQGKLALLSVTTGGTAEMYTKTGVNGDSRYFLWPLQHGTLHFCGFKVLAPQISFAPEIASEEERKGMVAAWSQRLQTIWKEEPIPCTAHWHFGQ
Description: Inhibition of QR2 (unknown origin) using MTT and NMeH as substrates relative to control.
Conditions: not given
As to `COc1ccc2c(c1)C1(C(=O)N2)C2CCC(C2)C1CNC(C)=O` (centres undefined), the Imax is 59.6%.

Compound `COc1ccc2[nH]c(Cl)c(CCNC(C)=O)c2c1` displayed an Imax of 91%.

`CC(=O)NCCC1C(=O)Nc2ccc(Br)cc21` (centres undefined) had an Imax of 29.9%.

For another data set, the target named is T2, Ribosyldihydronicotinamide dehydrogenase [quinone] (Homo sapiens, UniProt P16083).
T2 sequence (P16083 whole entry): T1 sequence (whole entry)
Description: Inhibition of QR2 (unknown origin) using MTT and NMeH as substrates.
Conditions: not given
Usually IC50 stands for the concentration that inhibits the measured activity by half. `COc1ccc2c(c1)C1(C(=O)N2)C2CCC(C2)C1CNC(C)=O` (centres undefined): the IC50 was 63 µM.

The compound `COc1ccc2[nH]c(Cl)c(CCNC(C)=O)c2c1` had a concentration for half-maximal inhibition (IC50) of 13 µM.

Turning to `CC(=O)NCCC1C(=O)Nc2ccc(Br)cc21` (centres undefined), the IC50 came out at 19 µM.

For the next data set, the species on record is Oryctolagus cuniculus. Description: Reduction in intraocular pressure in Chinchilla rabbit assessed as maximal change in intraocular pressure at 0.1% after application of one drop (0.06 ml) of solution containing active compound/vehicle every hour (during 6 hours and after 24 hours) by applanation tonometry. It is filed as functional. More on the design: scale not given: the % may be the effect or the level left.
Conditions: not given
Take `CC(C)(C)NC[C@H](O)COc1nsnc1N1CCOCC1` [TIMOLOL]: the Activity is on record as 11%.

For the compound `COc1ccc2[nH]cc(CCNC(C)=O)c2c1` [MELATONIN], the Activity is 12%.

For another data set, the species on record is Oryctolagus cuniculus. The data set can be described thus: Reduction in intraocular pressure in Chinchilla rabbit assessed as maximal change in intraocular pressure at 0.1% after application of one drop (0.06 ml) of solution containing active compound/vehicle every hour (during 6 hours and after 24 hours) by automatic tonometry. It is filed as functional.
Conditions: not given
For `COc1ccc2c(c1)C1(C(=O)N2)C2CCC(C2)C1CNC(C)=O` (centres undefined), the outcome was inactive.

Consider `CC(=O)NCCC1C(=O)Nc2ccc(NC(C)=O)cc21` (centres undefined), for which the outcome was inactive.

Take `CC(C)(C)NC[C@H](O)COc1nsnc1N1CCOCC1` [TIMOLOL]: the Activity is 32%.

Regarding `COc1ccc2[nH]c(Cl)c(CCNC(C)=O)c2c1`, the result was inactive.

For `COc1ccc2c(c1)C(CC#N)C(=O)N2` (centres undefined), the outcome was inactive.

Turning to `CCOC(=O)C(C(=O)O)C1C(=O)Nc2ccc(OC)cc21` (centres undefined), the Activity turned out to be 18%.

On to `CC(=O)NCCC1C(=O)Nc2ccc(Br)cc21` (centres undefined), for which the outcome was inactive.

For `CC(=O)Nc1ccc2c(c1)C(O)(CC#N)C(=O)N2` (centres undefined), the outcome was inactive.

Turning to `COc1ccc2[nH]cc(CCNC(C)=O)c2c1` [MELATONIN], the Activity was 26 - 31%.

With `CCC(=O)Nc1cc(NC(=O)CC)c2c(c1)C(O)(CC#N)C(=O)N2` (centres undefined), the Activity was 29%.

As for `CCC(=O)Nc1cc(NC(=O)CC)c2c(c1)C(CC#N)(OC(=O)CC)C(=O)N2` (centres undefined), the Activity is on record as 15%.

With `CC(=O)Nc1cc(NC(C)=O)c2c(c1)C(CC#N)(OC(C)=O)C(=O)N2` (centres undefined), the Activity is given as 21%.

Another data set is filed under the species Oryctolagus cuniculus. The data set can be described thus: Reduction in intraocular pressure in Chinchilla rabbit assessed as maximal change in intraocular pressure at 0.5% after application of one drop (0.06 ml) of solution containing active compound/vehicle every hour (during 6 hours and after 24 hours) by applanation tonometry. The class given is functional.
Conditions: not given
`CC(=O)Nc1cc(NC(C)=O)c2c(c1)C(CC#N)(OC(C)=O)C(=O)N2` (centres undefined): the outcome was Active.

For another data set, the species on record is Oryctolagus cuniculus. Description: Reduction in intraocular pressure in Chinchilla rabbit assessed as maximal change in intraocular pressure at 1% after application of one drop (0.06 ml) of solution containing active compound/vehicle every hour (during 6 hours and after 24 hours) by applanation tonometry. The class given is functional.
Conditions: not given
Take `COc1ccc2[nH]cc(CCNC(C)=O)c2c1` [MELATONIN]: the result was inactive.

Regarding `CC(=O)Nc1cc(NC(C)=O)c2c(c1)C(CC#N)(OC(C)=O)C(=O)N2` (centres undefined), the outcome was inactive.

The species entered for the next data set is Oryctolagus cuniculus. The data set can be described thus: Reduction in intraocular pressure in Chinchilla rabbit assessed as maximum effective time required for reduction of intraaocular pressure at 0.1% after application of one drop (0.06 ml) of solution containing active compound/vehicle every hour (during 6 hours and after 24 hours) by automatic tonometry. The class given is functional.
Conditions: not given
With `COc1ccc2c(c1)C1(C(=O)N2)C2CCC(C2)C1CNC(C)=O` (centres undefined), the Time entry is “inactive”.

Consider `CC(=O)NCCC1C(=O)Nc2ccc(NC(C)=O)cc21` (centres undefined), for which the Time result was “inactive”.

As for `CC(C)(C)NC[C@H](O)COc1nsnc1N1CCOCC1` [TIMOLOL], the Time came to 4 h.

For the compound `COc1ccc2[nH]c(Cl)c(CCNC(C)=O)c2c1`, the Time result was “inactive”.

In the case of `COc1ccc2c(c1)C(CC#N)C(=O)N2` (centres undefined), the Time result is “inactive”.

Turning to `CCOC(=O)C(C(=O)O)C1C(=O)Nc2ccc(OC)cc21` (centres undefined), the Time was 4 h.

For the compound `CC(=O)NCCC1C(=O)Nc2ccc(Br)cc21` (centres undefined), the Time result is “inactive”.

On to `CC(=O)Nc1ccc2c(c1)C(O)(CC#N)C(=O)N2` (centres undefined), for which the Time entry was “inactive”.

For `COc1ccc2[nH]cc(CCNC(C)=O)c2c1` [MELATONIN], the Time amounted to 3 h.

In the case of `CCC(=O)Nc1cc(NC(=O)CC)c2c(c1)C(O)(CC#N)C(=O)N2` (centres undefined), the Time was determined as 4 h.

For `CCC(=O)Nc1cc(NC(=O)CC)c2c(c1)C(CC#N)(OC(=O)CC)C(=O)N2` (centres undefined), the Time is 2 h.

Take `CC(=O)Nc1cc(NC(C)=O)c2c(c1)C(CC#N)(OC(C)=O)C(=O)N2` (centres undefined): the Time came out at 2 h.

A further data set is filed under the species Oryctolagus cuniculus. The data set can be described thus: Reduction in intraocular pressure in Chinchilla rabbit assessed as maximum effective time required for reduction of intraaocular pressure at 0.1% after application of one drop (0.06 ml) of solution containing active compound/vehicle every hour (during 6 hours and after 24 hours) by applanation tonometry.
Conditions: not given
The class given is functional.
`CC(C)(C)NC[C@H](O)COc1nsnc1N1CCOCC1` [TIMOLOL]: the Time came out at 3 h.

For the compound `COc1ccc2[nH]cc(CCNC(C)=O)c2c1` [MELATONIN], the Time stood at 4 h.

Values taken from ChEMBL document CHEMBL4052743, “Oxindole-based intraocular pressure reducing agents” (Bioorg Med Chem Lett, 2017).
